Results reported in ChEMBL document CHEMBL4800729 (2021).

Experiments:
[1] = biological target: Thromboxane-A synthase (Homo sapiens) (UniProt P24557); test: Inhibition of Thromboxane Synthase at compound concentration of 10.0 uM in the Eurofins-Panlabs enzyme assay (Eurofins_assay_194020); parameters: substrate with concentration; settings: Compound concentration 10.0 uM
[2] = biological target: Purinergic P2Y (Rattus norvegicus) (UniProt O35811+Q9EPX4+P49651+Q63371+P41232+O35881+Q6GUG4); test: Inhibition of Purinergic P2Y at compound concentration of 10.0 uM in the Eurofins-Panlabs radioligand binding assay (Eurofins_assay_268820); type: protein assay; parameters: ligand concentration 0.1 nM; settings: Compound concentration 10.0 uM
[3] = biological target: Activin receptor type-1 (Homo sapiens) (UniProt Q04771); test: ALK2(h) Millipore kinase panel; settings: Compound concentration 1.0 uM
[4] = biological target: Activin receptor type-1B (Homo sapiens) (UniProt P36896); test: Alk4(h) Millipore kinase panel; settings: Compound concentration 1.0 uM
[5] = biological target: 5'-AMP-activated protein kinase catalytic subunit alpha-1 (Homo sapiens) (UniProt Q13131); test: AMPKalpha1(h) Millipore kinase panel; settings: Compound concentration 1.0 uM
[6] = biological target: Tyrosine-protein kinase BTK (Homo sapiens) (UniProt Q06187); test: BTK(h) Millipore kinase panel; settings: Compound concentration 1.0 uM
[7] = biological target: Calcium/calmodulin-dependent protein kinase type 1 (Homo sapiens) (UniProt Q14012); test: CaMKI(h) Millipore kinase panel; settings: Compound concentration 1.0 uM
[8] = biological target: Cyclin-dependent kinase 5/CDK5 activator 1 (Homo sapiens) (UniProt Q00535+Q15078); test: CDK5/p35(h) Millipore kinase panel; type: protein-complex assay; settings: Compound concentration 1.0 uM
[9] = biological target: Cyclin-dependent kinase-like 4 (Homo sapiens) (UniProt Q5MAI5); test: CDKL4(h) Millipore kinase panel; settings: Compound concentration 1.0 uM
[10] = biological target: Dual specificity protein kinase CLK2 (Homo sapiens) (UniProt P49760); test: CLK2(h) Millipore kinase panel; settings: Compound concentration 1.0 uM
[11] = biological target: Serine/threonine-protein kinase DCLK2 (Homo sapiens) (UniProt Q8N568); test: DCAMKL2(h) Millipore kinase panel; settings: Compound concentration 1.0 uM
[12] = biological target: Rhodopsin kinase GRK1 (Homo sapiens) (UniProt Q15835); test: GRK1(h) Millipore kinase panel; settings: Compound concentration 1.0 uM
[13] = biological target: Homeodomain-interacting protein kinase 2 (Homo sapiens) (UniProt Q9H2X6); test: HIPK2(h) Millipore kinase panel; settings: Compound concentration 1.0 uM
[14] = biological target: Serine/threonine-protein kinase ICK (Homo sapiens) (UniProt Q9UPZ9); test: ICK(h) Millipore kinase panel; settings: Compound concentration 1.0 uM
[15] = biological target: Serine/threonine-protein kinase/endoribonuclease IRE1 (Homo sapiens) (UniProt O75460); test: IRE1(h) Millipore kinase panel; settings: Compound concentration 1.0 uM
[16] = biological target: Tyrosine-protein kinase JAK1 (Homo sapiens) (UniProt P23458); test: JAK1(h) Millipore kinase panel; settings: Compound concentration 1.0 uM
[17] = biological target: Serine/threonine-protein kinase 10 (Homo sapiens) (UniProt O94804); test: LOK(h) Millipore kinase panel; settings: Compound concentration 1.0 uM
[18] = biological target: Myosin light chain kinase (Homo sapiens) (UniProt Q32MK0); test: MLCK(h) Millipore kinase panel; settings: Compound concentration 1.0 uM
[19] = biological target: MAP kinase-interacting serine/threonine-protein kinase 2 (Homo sapiens) (UniProt Q9HBH9); test: Mnk2(h) Millipore kinase panel; settings: Compound concentration 1.0 uM
[20] = biological target: Serine/threonine-protein kinase 26 (Homo sapiens) (UniProt Q9P289); test: MST4(h) Millipore kinase panel; settings: Compound concentration 1.0 uM
[21] = biological target: Myosin light chain kinase 2, skeletal/cardiac muscle (Homo sapiens) (UniProt Q9H1R3); test: MYLK2(h) Millipore kinase panel; settings: Compound concentration 1.0 uM
[22] = biological target: Serine/threonine-protein kinase Nek3 (Homo sapiens) (UniProt P51956); test: NEK3(h) Millipore kinase panel; settings: Compound concentration 1.0 uM
[23] = biological target: Serine/threonine-protein kinase PAK 6 (Homo sapiens) (UniProt Q9NQU5); test: PAK6(h) Millipore kinase panel; settings: Compound concentration 1.0 uM
[24] = biological target: PAS domain-containing serine/threonine-protein kinase (Homo sapiens) (UniProt Q96RG2); test: PASK(h) Millipore kinase panel; settings: Compound concentration 1.0 uM
[25] = biological target: cAMP-dependent protein kinase catalytic subunit beta (Homo sapiens) (UniProt P22694); test: PKACbeta(h) Millipore kinase panel; settings: Compound concentration 1.0 uM
[26] = biological target: Protein kinase C beta type (Homo sapiens) (UniProt P05771); test: PKCbetaII(h) Millipore kinase panel; settings: Compound concentration 1.0 uM
[27] = biological target: cGMP-dependent protein kinase 1 (Homo sapiens) (UniProt Q13976); test: PKG1beta(h) Millipore kinase panel; settings: Compound concentration 1.0 uM
[28] = biological target: Serine/threonine-protein kinase PLK4 (Homo sapiens) (UniProt O00444); test: Plk4(h) Millipore kinase panel; settings: Compound concentration 1.0 uM
[29] = biological target: Serine/threonine-protein kinase N1 (Homo sapiens) (UniProt Q16512); test: PRK1(h) Millipore kinase panel; settings: Compound concentration 1.0 uM
[30] = biological target: Rho-associated protein kinase 2 (Homo sapiens) (UniProt O75116); test: ROCK-II(h) Millipore kinase panel; settings: Compound concentration 1.0 uM
[31] = biological target: Serine/threonine-protein kinase SBK1 (Homo sapiens) (UniProt Q52WX2); test: SBK1(h) Millipore kinase panel; settings: Compound concentration 1.0 uM
[32] = biological target: Serine/threonine-protein kinase SIK1 (Homo sapiens) (UniProt P57059); test: SIK(h) Millipore kinase panel; settings: Compound concentration 1.0 uM
[33] = biological target: Serine/threonine-protein kinase TBK1 (Homo sapiens) (UniProt Q9UHD2); test: TBK1(h) Millipore kinase panel; settings: Compound concentration 1.0 uM
[34] = biological target: High affinity nerve growth factor receptor (Homo sapiens) (UniProt P04629); test: TrkA(h) Millipore kinase panel; settings: Compound concentration 1.0 uM
[35] = biological target: BDNF/NT-3 growth factors receptor (Homo sapiens) (UniProt Q16620); test: TrkB(h) Millipore kinase panel; settings: Compound concentration 1.0 uM
[36] = biological target: Dual specificity protein kinase TTK (Homo sapiens) (UniProt P33981); test: TTK(h) Millipore kinase panel; settings: Compound concentration 1.0 uM
[37] = biological target: Phosphatidylinositol 4,5-bisphosphate 3-kinase catalytic subunit gamma isoform (Homo sapiens) (UniProt P48736); test: PI3 Kinase (p120g)(h) Millipore kinase panel; settings: Compound concentration 1.0 uM
[38] = biological target: MAP kinase-activated protein kinase 3 (Homo sapiens) (UniProt Q16644); test: MAPKAP-K3(h) Millipore kinase panel; settings: Compound concentration 1.0 uM
[39] = biological target: Cyclin-dependent kinase 13/Cyclin-K (Homo sapiens) (UniProt Q14004+O75909); test: CDK13/cyclinK(h) Millipore kinase panel; type: protein-complex assay; settings: Compound concentration 1.0 uM
[40] = biological target: 5-hydroxytryptamine receptor 1D (Homo sapiens) (UniProt P28221); settings: Compound concentration 10.0 uM
[41] = biological target: 5-hydroxytryptamine receptor 3A (Homo sapiens) (UniProt P46098); settings: Compound concentration 10.0 uM
[42] = biological target: Delta-type opioid receptor (Homo sapiens) (UniProt P41143); settings: Compound concentration 10.0 uM
[43] = biological target: B2 bradykinin receptor (Homo sapiens) (UniProt P30411); settings: Compound concentration 10.0 uM
[44] = biological target: Glutamate NMDA receptor (Rattus norvegicus) (UniProt P35439+Q00959+Q00960+Q00961+Q62645+Q8VHN2+Q9R1M7); settings: Compound concentration 10.0 uM
[45] = biological target: Sodium-dependent serotonin transporter (Homo sapiens) (UniProt P31645); settings: Compound concentration 10.0 uM
[46] = biological target: D(2) dopamine receptor (Homo sapiens) (UniProt P14416); settings: Compound concentration 10.0 uM
[47] = biological target: Phosphorylase b kinase gamma catalytic chain, testis/liver isoform (Homo sapiens) (UniProt P15735); test: PhKgamma2(h) Millipore kinase panel; settings: Compound concentration 1.0 uM

Measured: inhibition

Chain of cGMP-dependent protein kinase 1 (Homo sapiens) (Q13976 whole entry): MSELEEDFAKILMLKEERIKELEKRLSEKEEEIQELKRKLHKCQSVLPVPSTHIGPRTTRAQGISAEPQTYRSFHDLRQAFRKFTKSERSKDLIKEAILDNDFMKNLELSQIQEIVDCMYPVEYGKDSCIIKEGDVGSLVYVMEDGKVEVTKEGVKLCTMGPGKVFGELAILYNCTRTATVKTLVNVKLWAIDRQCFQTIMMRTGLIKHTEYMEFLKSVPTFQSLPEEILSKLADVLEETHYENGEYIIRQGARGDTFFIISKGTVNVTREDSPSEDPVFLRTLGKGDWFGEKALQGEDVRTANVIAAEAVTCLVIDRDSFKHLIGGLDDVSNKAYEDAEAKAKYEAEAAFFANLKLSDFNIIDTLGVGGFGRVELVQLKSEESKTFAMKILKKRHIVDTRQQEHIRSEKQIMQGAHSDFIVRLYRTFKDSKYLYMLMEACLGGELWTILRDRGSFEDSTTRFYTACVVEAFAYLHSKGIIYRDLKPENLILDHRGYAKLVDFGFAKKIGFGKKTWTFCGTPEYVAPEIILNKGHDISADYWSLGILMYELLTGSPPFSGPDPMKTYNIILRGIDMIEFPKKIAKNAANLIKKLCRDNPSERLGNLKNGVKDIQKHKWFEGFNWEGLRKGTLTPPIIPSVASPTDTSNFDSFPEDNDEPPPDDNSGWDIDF
Chain of Delta-type opioid receptor (Homo sapiens) (P41143 whole entry): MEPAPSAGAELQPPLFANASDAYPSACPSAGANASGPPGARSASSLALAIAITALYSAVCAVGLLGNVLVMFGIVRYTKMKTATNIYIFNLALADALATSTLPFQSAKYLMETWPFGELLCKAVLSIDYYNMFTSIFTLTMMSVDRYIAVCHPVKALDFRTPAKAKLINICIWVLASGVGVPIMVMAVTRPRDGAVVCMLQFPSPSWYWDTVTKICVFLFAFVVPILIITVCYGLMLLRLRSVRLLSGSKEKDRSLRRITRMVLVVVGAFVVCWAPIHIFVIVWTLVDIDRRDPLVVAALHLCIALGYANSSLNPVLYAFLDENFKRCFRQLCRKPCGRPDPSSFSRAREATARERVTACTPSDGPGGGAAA
Chain of Protein kinase C beta type (Homo sapiens) (P05771 2-671 limits assumed): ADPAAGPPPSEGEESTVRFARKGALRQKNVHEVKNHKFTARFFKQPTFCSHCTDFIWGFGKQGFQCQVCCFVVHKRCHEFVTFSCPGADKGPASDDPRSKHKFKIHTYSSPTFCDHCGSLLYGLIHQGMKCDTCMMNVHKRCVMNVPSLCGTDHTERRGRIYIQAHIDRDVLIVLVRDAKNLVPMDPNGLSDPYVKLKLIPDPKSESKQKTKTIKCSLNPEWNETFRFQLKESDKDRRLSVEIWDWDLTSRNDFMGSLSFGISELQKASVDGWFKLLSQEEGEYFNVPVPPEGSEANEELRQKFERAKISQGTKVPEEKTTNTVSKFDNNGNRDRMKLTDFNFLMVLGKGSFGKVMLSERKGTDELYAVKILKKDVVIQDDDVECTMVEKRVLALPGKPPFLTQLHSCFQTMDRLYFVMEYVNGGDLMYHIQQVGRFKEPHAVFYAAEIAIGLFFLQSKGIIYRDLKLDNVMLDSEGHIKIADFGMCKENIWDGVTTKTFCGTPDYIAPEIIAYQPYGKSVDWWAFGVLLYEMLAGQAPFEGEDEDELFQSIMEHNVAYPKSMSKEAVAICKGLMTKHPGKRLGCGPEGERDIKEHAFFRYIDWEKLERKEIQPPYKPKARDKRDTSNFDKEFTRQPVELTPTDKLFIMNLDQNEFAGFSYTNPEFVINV
Chain of BDNF/NT-3 growth factors receptor (Homo sapiens) (Q16620 32-822 limits assumed): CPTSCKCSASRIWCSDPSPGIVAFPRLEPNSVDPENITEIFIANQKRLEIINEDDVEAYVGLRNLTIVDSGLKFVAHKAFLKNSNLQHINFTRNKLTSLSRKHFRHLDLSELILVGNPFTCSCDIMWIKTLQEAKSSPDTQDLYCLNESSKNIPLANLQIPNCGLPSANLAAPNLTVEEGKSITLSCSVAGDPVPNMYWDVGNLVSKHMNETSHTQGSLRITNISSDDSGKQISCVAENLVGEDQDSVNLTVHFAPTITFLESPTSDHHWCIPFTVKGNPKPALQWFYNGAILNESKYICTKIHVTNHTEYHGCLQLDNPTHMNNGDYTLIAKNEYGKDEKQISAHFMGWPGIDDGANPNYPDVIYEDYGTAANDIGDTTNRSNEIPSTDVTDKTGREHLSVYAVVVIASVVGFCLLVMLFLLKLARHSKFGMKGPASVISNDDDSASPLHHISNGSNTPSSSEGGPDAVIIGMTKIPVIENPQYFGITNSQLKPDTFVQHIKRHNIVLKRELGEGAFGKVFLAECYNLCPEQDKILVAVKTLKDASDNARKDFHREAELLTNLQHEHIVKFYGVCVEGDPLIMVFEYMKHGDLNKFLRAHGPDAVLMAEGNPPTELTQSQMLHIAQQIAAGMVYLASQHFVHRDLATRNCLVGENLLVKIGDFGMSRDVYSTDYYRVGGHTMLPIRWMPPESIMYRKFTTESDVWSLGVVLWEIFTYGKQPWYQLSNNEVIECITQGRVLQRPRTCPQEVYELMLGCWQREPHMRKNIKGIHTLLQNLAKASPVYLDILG
Chain of Dual specificity protein kinase TTK (Homo sapiens) (P33981 whole entry, canonical isoform): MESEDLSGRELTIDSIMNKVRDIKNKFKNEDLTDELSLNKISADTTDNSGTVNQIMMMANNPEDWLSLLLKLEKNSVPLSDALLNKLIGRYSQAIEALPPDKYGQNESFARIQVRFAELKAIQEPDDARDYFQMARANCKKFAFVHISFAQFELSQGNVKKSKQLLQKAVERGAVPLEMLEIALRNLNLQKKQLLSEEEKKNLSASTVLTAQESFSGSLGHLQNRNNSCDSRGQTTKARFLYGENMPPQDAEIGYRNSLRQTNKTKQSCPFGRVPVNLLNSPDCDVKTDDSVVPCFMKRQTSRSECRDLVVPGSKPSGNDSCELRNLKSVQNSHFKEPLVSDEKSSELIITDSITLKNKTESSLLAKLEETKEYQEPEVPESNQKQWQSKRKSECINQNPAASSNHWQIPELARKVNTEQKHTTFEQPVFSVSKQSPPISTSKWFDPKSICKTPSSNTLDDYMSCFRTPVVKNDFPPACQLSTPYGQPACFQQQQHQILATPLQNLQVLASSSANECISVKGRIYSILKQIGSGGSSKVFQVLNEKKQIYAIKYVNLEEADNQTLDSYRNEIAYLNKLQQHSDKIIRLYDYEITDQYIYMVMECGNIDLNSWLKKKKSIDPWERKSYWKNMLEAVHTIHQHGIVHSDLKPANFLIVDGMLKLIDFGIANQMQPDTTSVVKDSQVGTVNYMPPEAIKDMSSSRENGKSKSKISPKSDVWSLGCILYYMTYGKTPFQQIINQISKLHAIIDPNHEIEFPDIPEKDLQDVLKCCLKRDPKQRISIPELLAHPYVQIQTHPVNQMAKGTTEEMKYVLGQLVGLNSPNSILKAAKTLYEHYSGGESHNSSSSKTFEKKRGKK
Chain of Rhodopsin kinase GRK1 (Homo sapiens) (Q15835 whole entry): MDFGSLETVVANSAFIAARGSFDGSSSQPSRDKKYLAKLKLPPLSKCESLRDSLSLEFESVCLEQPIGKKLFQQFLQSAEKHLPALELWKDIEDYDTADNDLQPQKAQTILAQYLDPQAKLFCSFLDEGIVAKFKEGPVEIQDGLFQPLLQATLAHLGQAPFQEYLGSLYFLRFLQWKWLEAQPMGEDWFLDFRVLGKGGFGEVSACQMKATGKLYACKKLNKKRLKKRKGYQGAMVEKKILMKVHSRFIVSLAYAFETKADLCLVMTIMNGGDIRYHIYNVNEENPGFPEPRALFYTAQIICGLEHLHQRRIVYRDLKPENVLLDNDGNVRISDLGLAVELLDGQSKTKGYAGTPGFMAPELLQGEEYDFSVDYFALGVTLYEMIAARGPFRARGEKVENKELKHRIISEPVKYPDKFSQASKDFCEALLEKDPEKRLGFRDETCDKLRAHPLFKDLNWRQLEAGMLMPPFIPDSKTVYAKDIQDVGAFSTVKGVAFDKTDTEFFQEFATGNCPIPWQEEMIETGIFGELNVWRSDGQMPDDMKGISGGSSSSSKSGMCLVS
Chain of Serine/threonine-protein kinase 26 (Homo sapiens) (Q9P289 2-416 limits assumed): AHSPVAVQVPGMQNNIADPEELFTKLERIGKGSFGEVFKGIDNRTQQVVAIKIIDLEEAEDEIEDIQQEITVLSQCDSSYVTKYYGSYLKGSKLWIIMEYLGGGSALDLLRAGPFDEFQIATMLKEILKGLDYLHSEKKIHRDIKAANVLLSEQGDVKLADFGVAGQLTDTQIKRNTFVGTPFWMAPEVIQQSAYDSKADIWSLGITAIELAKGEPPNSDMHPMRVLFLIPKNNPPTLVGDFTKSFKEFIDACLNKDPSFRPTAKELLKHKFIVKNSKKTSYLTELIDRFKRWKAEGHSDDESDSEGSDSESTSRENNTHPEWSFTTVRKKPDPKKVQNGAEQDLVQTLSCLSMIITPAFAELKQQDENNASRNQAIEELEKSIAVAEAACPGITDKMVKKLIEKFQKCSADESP
Chain of D(2) dopamine receptor (Homo sapiens) (P14416 whole entry, canonical isoform): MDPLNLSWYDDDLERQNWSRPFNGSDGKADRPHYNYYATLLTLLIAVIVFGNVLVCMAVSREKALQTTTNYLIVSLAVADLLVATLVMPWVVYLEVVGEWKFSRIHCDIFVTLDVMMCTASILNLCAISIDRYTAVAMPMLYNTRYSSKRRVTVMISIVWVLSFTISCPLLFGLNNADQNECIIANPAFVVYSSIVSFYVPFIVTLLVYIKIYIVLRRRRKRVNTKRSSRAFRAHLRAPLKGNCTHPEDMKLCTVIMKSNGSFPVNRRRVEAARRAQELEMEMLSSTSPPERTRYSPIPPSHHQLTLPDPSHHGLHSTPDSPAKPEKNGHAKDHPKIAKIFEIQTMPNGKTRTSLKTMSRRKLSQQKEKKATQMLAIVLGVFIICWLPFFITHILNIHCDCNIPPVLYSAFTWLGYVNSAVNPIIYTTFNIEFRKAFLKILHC

CC[C@@H](Nc1c(C#N)c(-c2ccc(-c3cccc(C)c3F)cc2)nc2cnccc12)C(=O)O [BAY-091]
active: [1] 98%
inactive: [2] 31% | [3] 5.14% | [4] -3.68% | [5] -1.91% | [6] 12.8% | [7] 7.33% | [8] -0.03% | [9] 12.6% | [10] 0.07% | [11] -2.01% | [12] 1.52% | [13] 0.19% | [14] 14.8% | [15] 2.72% | [16] -0.44% | [17] 8.13% | [18] -5.27% | [19] 3.39% | [20] 5.69% | [21] 7.84% | [22] 8.41% | [23] -5.79% | [24] 11.1% | [25] 6.73% | [26] -1.59% | [27] 8.22% | [28] -8.83% | [29] 5.64% | [30] -0.6% | [31] 4.02% | [32] 13.4% | [33] 8.44% | [34] 5.32% | [35] 2.08% | [36] -9.1% | [37] 14.4% | [38] 5.32% | [39] 1.16% | [40] 21.2% | [41] 7.39% | [42] 12.9% | [43] 1% | [44] -1% | [45] 10% | [46] 8% | [47] -0.34%
